We go through 40 compounds from US8722720B2, “Imidazole derivatives as IDO inhibitors” (NewLink Genetics Corporation, priority 2010, dated 2014).

A value given as a limit tells only on which side of the number the result lay.

For one experiment, the target named is T1, purified human IDO protein (Homo sapiens, UniProt P14902).
T1 construct: 2 extra amino acids (linker from the BglII cloning site of pQE70); made in house; host or cells: E. coli M15(pREP4) with plasmid pQE70-hIDO
T1 sequence (P14902 whole entry P110S/E119G): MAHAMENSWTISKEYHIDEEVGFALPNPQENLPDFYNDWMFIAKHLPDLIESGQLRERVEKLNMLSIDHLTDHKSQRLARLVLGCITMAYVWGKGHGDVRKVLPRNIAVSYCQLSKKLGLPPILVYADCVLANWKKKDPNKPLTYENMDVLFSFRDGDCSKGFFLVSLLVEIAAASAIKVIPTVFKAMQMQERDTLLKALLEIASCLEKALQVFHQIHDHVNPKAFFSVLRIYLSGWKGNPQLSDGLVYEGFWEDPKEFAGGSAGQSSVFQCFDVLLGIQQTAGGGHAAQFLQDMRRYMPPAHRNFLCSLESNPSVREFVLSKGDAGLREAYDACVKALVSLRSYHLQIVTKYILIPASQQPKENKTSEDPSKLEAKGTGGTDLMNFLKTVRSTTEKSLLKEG
Briefly: Enzymatic IDO assay (kynurenine production, absorbance at 480 nm). It is filed as biochemical. The settings on record: hIDO IC50, recombinant human IDO; values reported in ranges. In a few lines:
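Inhibitors (final 1 mM to 5 nM, in 50 mM potassium phosphate) preincubated with enzyme 5 min at 25 °C, then 200 μM L-tryptophan added, 15 min at 37 °C. TCA stop and 60 °C hydrolysis to kynurenine, detected with p-dimethylaminobenzaldehyde at 480 nm. IC50 by nonlinear regression.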
For orientation: IC50 means the concentration needed to halve the response being measured. With `CC(=O)OCCN(C)C(=O)Oc1ccc(Cl)cc1-c1c[nH]cn1` [compound 1253, 2-(((4-chloro-2-(1H-imidazol-4-yl)phenoxy)carbonyl)(methyl)amino)ethyl acetate], the IC50 is over 100 µM.

The same experiment, now with this note: recombinant human IDO; values reported in ranges; read-out: hIDO IC50.
Regarding `c1ccc(-c2c[nH]cn2)c(OCCc2ccc(N3CCCC3)cc2)c1` [compound 1225, 4-(2-(4-(pyrrolidin-1-yl)phenethoxy)phenyl)-1H-imidazole], the IC50 fell in the range of 10 to 100 µM.
Take `O=C(Cc1cscn1)Nc1ccc(CCOc2ccccc2-c2c[nH]cn2)cc1` [compound 1226, N-(4-(2-(2-(1H-imidazol-4-yl)phenoxy)ethyl)phenyl)-2-(thiazol-4-yl)acetamide]: the IC50 fell in the range of 1 to 10 µM.
Still for that read-out and setting: the same measure for `O=C(Cc1ncccn1)Nc1ccc(CCOc2ccccc2-c2c[nH]cn2)cc1` [compound 1227, N-(4-(2-(2-(1H-imidazol-4-yl)phenoxy)ethyl)phenyl)-2-(pyrimidin-2-yl)acetamide]: 1 to 10 µM.
On the same count and under the same terms, the same measure for `O=C(Cc1ccccc1)Nc1ccc(CCOc2ccccc2-c2c[nH]cn2)cn1` [compound 1228, N-(5-(2-(2-(1H-imidazol-4-yl)phenoxy)ethyl)pyridin-2-yl)-2-phenylacetamide]: 1 to 10 µM; for `O=C1CCCCN1c1ccc(CCOc2ccccc2-c2c[nH]cn2)cc1` [compound 1230, 1-(4-(2-(2-(1H-imidazol-4-yl)phenoxy)ethyl)phenyl)piperidin-2-one]: 10 to 100 µM; for `Oc1cccc(OCCN2CCOCC2)c1-c1cnc[nH]1` [compound 1231, 2-(1H-imidazol-5-yl)-3-(2-morpholinoethoxy) phenol]: 10 to 100 µM.
The same measure, in the same setting: under `CC(=O)Nc1ccc(CCOc2cccc(O)c2-c2cnc[nH]2)cc1` [compound 1232, N-(4-(2-(3-hydroxy-2-(1H-imidazol-5-yl)phenoxy)ethyl)phenyl)acetamide] stands 10 to 100 µM; under `CN1CCN(CCOc2ccccc2-c2c[nH]cn2)CC1` [compound 1234, 1-(2-(2-(1H-imidazol-4-yl)phenoxy)ethyl)-4-methylpiperazine], over 100 µM.
Take `Oc1cccc(OCCC2CCCO2)c1-c1cnc[nH]1` (stereo not shown) [compound 1235, 2-(1H-imidazol-5-yl)-3-(2-(tetrahydrofuran-2-yl)ethoxy)phenol]: the IC50 lay in the range of 10 to 100 µM.
`c1ccc(-c2c[nH]cn2)c(OCCN2CCOCC2)c1` [compound 1236, 4-(2-(2-(1H-imidazol-4-yl)phenoxy)ethyl) morpholine]: the IC50 was over 100 µM.
As to `Oc1cccc(OCCc2ccncc2)c1-c1cnc[nH]1` [compound 1238, 2-(1H-imidazol-5-yl)-3-(2-(pyridin-4-yl)ethoxy) phenol], the IC50 was 10 to 100 µM.
On the same count and under the same terms, the same measure for `O=C(Cc1cncnc1)Nc1ccc(CCOc2ccccc2-c2c[nH]cn2)cc1` [compound 1239, N-(4-(2-(2-(1H-imidazol-4-yl)phenoxy)ethyl)phenyl)-2-(pyrimidin-5-yl)acetamide]: 1 to 10 µM.
Still for that read-out and setting: under `CC(C)(C)OC(=O)N1CCC(CCOc2cccc(O)c2-c2cnc[nH]2)CC1` [compound 1240, tert-butyl 4-(2-(3-hydroxy-2-(1H-imidazol-5-yl)phenoxy)ethyl)piperidine-1-carboxylate] stands 10 to 100 µM.
On the same count and under the same terms, under `O=C(Cc1cccc([N+](=O)[O-])c1)Nc1ccc(CCOc2ccccc2-c2c[nH]cn2)cc1` [compound 1241, N-(4-(2-(2-(1H-imidazol-4-yl)phenoxy)ethyl)phenyl)-2-(3-nitrophenyl)acetamide] stands 1 to 10 µM; under `O=C(Cc1ccccc1[N+](=O)[O-])Nc1ccc(CCOc2ccccc2-c2c[nH]cn2)cc1` [compound 1242, N-(4-(2-(2-(1H-imidazol-4-yl)phenoxy)ethyl)phenyl)-2-(2-nitrophenyl)acetamide], under 1 µM.
For the compound `BrCCOc1ccccc1-c1c[nH]cn1` [compound 1243, 4-(2-(2-bromoethoxy)phenyl)-1H-imidazole], the IC50 is 10 to 100 µM.
On to `Nc1cccc(CC(=O)Nc2ccc(CCOc3ccccc3-c3c[nH]cn3)cc2)c1` [compound 1244, N-(4-(2-(2-(1H-imidazol-4-yl)phenoxy)ethyl)phenyl)-2-(3-aminophenyl)acetamide], for which the IC50 lay within 1 to 10 µM.
`O=C(Cc1ccc([N+](=O)[O-])cc1)Nc1ccc(CCOc2ccccc2-c2c[nH]cn2)cc1` [compound 1247, N-(4-(2-(2-(1H-imidazol-4-yl)phenoxy)ethyl)phenyl)-2-(4-nitrophenyl)acetamide]: the IC50 is under 1 µM.
Still for that read-out and setting: the same measure for `Nc1ccccc1CC(=O)Nc1ccc(CCOc2ccccc2-c2c[nH]cn2)cc1` [compound 1248, N-(4-(2-(2-(1H-imidazol-4-yl)phenoxy)ethyl)phenyl)-2-(2-aminophenyl)acetamide]: under 1 µM.
On to `Nc1ccc(CC(=O)Nc2ccc(CCOc3ccccc3-c3c[nH]cn3)cc2)cc1` [compound 1250, N-(4-(2-(2-(1H-imidazol-4-yl)phenoxy)ethyl)phenyl)-2-(4-aminophenyl)acetamide], for which the IC50 fell in the range of 1 to 10 µM.
Turning to `Nc1nc(CC(=O)Nc2ccc(CCOc3ccccc3-c3c[nH]cn3)cc2)cs1` [compound 1257, N-(4-(2-(2-(1H-imidazol-4-yl)phenoxy)ethyl)phenyl)-2-(2-aminothiazol-4-yl)acetamide], the IC50 was 1 to 10 µM.
On the same count and under the same terms, under `O=C(CC1CCOCC1)Nc1ccc(CCOc2ccccc2-c2c[nH]cn2)c(Cl)c1` [compound 1260, N-(4-(2-(2-(1H-imidazol-4-yl)phenoxy)ethyl)-3-chlorophenyl)-2-(tetrahydro-2H-pyran-4-yl)acetamide] stands under 1 µM; under `COC(=O)c1cccc(C(=O)Nc2ccc(CCOc3ccccc3-c3c[nH]cn3)cc2)c1` [compound 1261, methyl 3-((4-(2-(2-(1H-imidazol-4-yl)phenoxy)ethyl)phenyl)carbamoyl)benzoate], under 1 µM.
Still for that read-out and setting: under `O=C(Nc1ccc(CCOc2ccccc2-c2c[nH]cn2)cc1)NC1CCOCC1` [compound 1263, 1-(4-(2-(2-(1H-imidazol-4-yl)phenoxy)ethyl)phenyl)-3-(tetrahydro-2H-pyran-4-yl)urea] stands 10 to 100 µM; under `COC(=O)[C@@H](Cc1cn(C)c2ccccc12)NC(=O)Oc1ccc(Cl)cc1-c1c[nH]cn1` [compound 1264, (R)-methyl 2-(((4-chloro-2-(1H-imidazol-4-yl)phenoxy)carbonyl)amino)-3-(1-methyl-1H-indol-3-yl) propanoate], 1 to 10 µM.
On to `O=C(Nc1ccc(CCOc2ccccc2-c2c[nH]cn2)c(Cl)c1)NC1CCOCC1` [compound 1265, 1-(4-(2-(2-(1H-imidazol-4-yl)phenoxy)ethyl)-3-chlorophenyl)-3-(tetrahydro-2H-pyran-4-yl)urea], for which the IC50 is under 1 µM.
Still for that read-out and setting: under `O=C(O)c1ccc(C(=O)Nc2ccc(CCOc3ccccc3-c3c[nH]cn3)cc2)cc1` [compound 1270, 4-((4-(2-(2-(1H-imidazol-4-yl)phenoxy)ethyl)phenyl)carbamoyl)benzoic acid] stands 1 to 10 µM; under `COC(=O)c1ccc(C(=O)Nc2ccc(CCOc3ccccc3-c3c[nH]cn3)cc2)cc1` [compound 1271, methyl 4-((4-(2-(2-(1H-imidazol-4-yl)phenoxy)ethyl)phenyl)carbamoyl)benzoate], 1 to 10 µM; under `O=C(Nc1ccc(CCOc2ccccc2-c2c[nH]cn2)cc1)c1cc(=O)[nH]c(=O)[nH]1` [compound 1272], 1 to 10 µM.
Regarding `O=C(O)c1cccc(C(=O)Nc2ccc(CCOc3ccccc3-c3c[nH]cn3)cc2)c1` [compound 1276, 3-((4-(2-(2-(1H-imidazol-4-yl)phenoxy)ethyl)phenyl)carbamoyl)benzoic acid], the IC50 was 1 to 10 µM.
Same read-out and setting: under `O=C(O)c1ccccc1C(=O)Nc1ccc(CCOc2ccccc2-c2c[nH]cn2)cc1` [compound 1285, 2-((4-(2-(2-(1H-imidazol-4-yl)phenoxy)ethyl)phenyl)carbamoyl)benzoic acid] stands 1 to 10 µM.
Take `c1ccc(-c2c[nH]cn2)c(OCc2cscn2)c1` [compound 1289, 4-((2-(1H-imidazol-4-yl)phenoxy)methyl) thiazole]: the IC50 was in the range of 10 to 100 µM.
Same read-out and setting: under `Fc1ccc(OCCc2ccccc2)c(-c2cnc[nH]2)c1` [compound 1292, 5-(5-fluoro-2-phenethoxyphenyl)-1H-imidazole] stands 10 to 100 µM.
Still for that read-out and setting: under `O=C(CC1CCOCC1)Nc1ccc(CCOc2ccccc2-c2c[nH]cn2)c(F)c1` [compound 1295, N-(4-(2-(2-(1H-imidazol-4-yl)phenoxy)ethyl)-3-fluorophenyl)-2-(tetrahydro-2H-pyran-4-yl)acetamide] stands under 1 µM; under `Fc1cccc(-c2c[nH]cn2)c1OCCc1ccccc1Cl` [compound 1296, 4-(2-(2-chlorophenethoxy)-3-fluorophenyl)-1H-imidazole], 10 to 100 µM.
Consider `O=C(CC1CCOCC1)Nc1ccc(CCOc2ccccc2-c2c[nH]cn2)cc1Cl` [compound 1297, N-(4-(2-(2-(1H-imidazol-4-yl)phenoxy)ethyl)-2-chlorophenyl)-2-(tetrahydro-2H-pyran-4-yl)acetamide], for which the IC50 lay within 10 to 100 µM.
On to `O=C(CC1CCOCC1)Nc1ccc(Cl)c(CCOc2ccccc2-c2c[nH]cn2)c1` [compound 1298, N-(3-(2-(2-(1H-imidazol-4-yl)phenoxy)ethyl)-4-chlorophenyl)-2-(tetrahydro-2H-pyran-4-yl)acetamide], for which the IC50 fell in the range of 10 to 100 µM.
The same measure, in the same setting: under `O=C(CC1CCOCC1)Nc1ccc(CCOc2ccccc2-c2c[nH]cn2)c(C(F)(F)F)c1` [compound 1305, N-(4-(2-(2-(1H-imidazol-4-yl)phenoxy)ethyl)-3-(trifluoromethyl)phenyl)-2-(tetrahydro-2H-pyran-4-yl)acetamide] stands under 1 µM.
On the same count and under the same terms, the same measure for `O=C(O)c1ccccc1CCOc1ccccc1-c1c[nH]cn1` [compound 1325, 2-(2-(2-(1H-imidazol-4-yl)phenoxy)ethyl) benzoic acid]: over 100 µM.
